Earlier results in patent US20070048250A1, “Methods of treating concomitant constipation in a cancer treatment regimen including imexon” (AmpliMed Corporation, priority 2005, published 2007).

Test system: dogs
Conditions: numerous studies; cited from earlier work

N=C1NC(=O)N2CC12 (stereo not shown) [imexon, 4-imino-1,3-diazabicyclo[3.1.0]-hexan-2-one]
gastrointestinal lesions on pathologic examination: not shown evidence of gastrointestinal lesions
